Test results from PubChem BioAssay AID602166 (The Scripps Research Institute Molecular Screening Center, 2012).
Calls of active or inactive are those of the source. No rule for the calls is given here.

These molecules were tested against Nuclear receptor coactivator 3 (Homo sapiens) (UniProt Q9Y6Q9) (assay: NCOA3 reporter inhibition potency – cell-based, luminescence, dose response (AID 602166;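 also: potency for reduction of SRC3 reporter signal so compounds are inhibitors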)). Conditions: SRC3 luciferase reporter cell assay.
Nuclear receptor coactivator 3 (Homo sapiens), sequence (Q9Y6Q9 whole entry, looked up): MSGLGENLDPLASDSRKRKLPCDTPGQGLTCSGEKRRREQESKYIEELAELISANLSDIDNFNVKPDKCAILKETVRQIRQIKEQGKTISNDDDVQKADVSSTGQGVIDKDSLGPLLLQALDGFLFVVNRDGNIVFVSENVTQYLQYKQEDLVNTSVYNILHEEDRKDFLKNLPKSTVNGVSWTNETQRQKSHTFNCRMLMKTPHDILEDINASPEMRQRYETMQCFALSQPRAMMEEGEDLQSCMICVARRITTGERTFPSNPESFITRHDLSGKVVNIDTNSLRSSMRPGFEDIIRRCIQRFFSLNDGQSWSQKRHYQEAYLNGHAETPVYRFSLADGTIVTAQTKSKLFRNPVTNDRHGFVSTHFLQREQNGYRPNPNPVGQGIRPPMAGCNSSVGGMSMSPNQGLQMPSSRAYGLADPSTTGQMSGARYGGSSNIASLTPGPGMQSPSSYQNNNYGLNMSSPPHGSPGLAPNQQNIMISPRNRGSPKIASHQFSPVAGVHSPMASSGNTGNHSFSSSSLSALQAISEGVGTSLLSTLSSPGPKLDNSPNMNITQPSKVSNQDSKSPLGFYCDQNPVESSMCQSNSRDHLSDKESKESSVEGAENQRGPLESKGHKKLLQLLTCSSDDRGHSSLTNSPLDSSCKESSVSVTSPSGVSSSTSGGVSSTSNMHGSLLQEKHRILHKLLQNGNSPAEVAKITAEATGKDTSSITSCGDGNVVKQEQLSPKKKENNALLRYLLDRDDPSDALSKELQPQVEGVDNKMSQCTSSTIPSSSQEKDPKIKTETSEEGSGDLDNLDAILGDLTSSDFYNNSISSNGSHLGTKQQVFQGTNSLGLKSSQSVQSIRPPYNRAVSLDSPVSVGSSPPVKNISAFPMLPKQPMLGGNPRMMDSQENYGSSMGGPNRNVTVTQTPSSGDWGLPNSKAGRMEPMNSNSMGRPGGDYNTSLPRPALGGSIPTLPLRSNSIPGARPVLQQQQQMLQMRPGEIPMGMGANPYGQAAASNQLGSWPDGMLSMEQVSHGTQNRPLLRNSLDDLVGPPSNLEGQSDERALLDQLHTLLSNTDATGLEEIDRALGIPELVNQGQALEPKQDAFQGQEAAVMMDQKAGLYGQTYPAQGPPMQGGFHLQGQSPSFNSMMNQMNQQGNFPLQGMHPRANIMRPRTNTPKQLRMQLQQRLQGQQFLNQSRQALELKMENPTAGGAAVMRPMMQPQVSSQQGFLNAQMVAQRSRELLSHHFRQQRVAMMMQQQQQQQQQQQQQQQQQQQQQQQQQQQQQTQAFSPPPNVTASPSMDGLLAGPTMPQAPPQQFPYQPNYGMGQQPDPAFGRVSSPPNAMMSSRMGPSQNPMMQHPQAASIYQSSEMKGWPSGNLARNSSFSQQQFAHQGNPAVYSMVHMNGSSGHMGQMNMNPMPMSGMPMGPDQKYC
For `COc1cccc2c1C(=N)c1c(O)c3c(c(O)c1C2=O)CC(O)(C(C)=O)CC3OC1CC(N)C(O)C(C)O1` (stereo not drawn), the IC50 was > 35.9 µM (inactive).
`CN(C)/C=C/C(=O)c1ccc2noc(-c3ccccc3)c2c1` showed an IC50 of 3.72 µM.
With `CCC(=O)c1ccc(O)c(CC=C(C)C)c1` the IC50 was 8.77 µM.
In the case of `Cc1nc(N)nc(N)c1-c1ccc(Cl)c(Cl)c1`, the IC50 is reported as 1.37 µM.
With `Cn1cnc([N+](=O)[O-])c1Sc1nc(N)nc2c1ncn2C1OC(CO)C(O)C1O` (stereo not drawn) the IC50 was 6.37 µM.
`COc1ccc(-n2cnc3c(sc4nccc(N(C)C)c43)c2=O)cc1` gave an IC50 of 8.19 µM.
In the case of `COc1cc(C2c3cc4c(cc3C(OC3OC5COC(c6cccs6)OC5C(O)C3O)C3COC(=O)C23)OCO4)cc(OC)c1O` (stereo not drawn), the IC50 is reported as 0.093 µM.
`COc1ccc(/C=C2\CC/C(=C\c3ccc(OC)c(OC)c3)C2=O)cc1OC` showed an IC50 of 6.33 µM.
`Cc1c(/C(O)=C2/C(=O)C(=O)N(Cc3cccnc3)C2c2ccccn2)cnn1-c1ccccc1` (stereo not drawn) was tested, and the IC50 was > 35.9 µM (inactive).
In the case of `C=CCOc1ccc(/C=C2\SC(=S)N(CCC(=O)O)C2=O)cc1`, the IC50 is reported as “inactive”.
`CCCS(=O)(=O)Nc1ccc(Nc2c3ccccc3nc3ccccc23)c(OC)c1` gave an IC50 of 0.605 µM.
`O=S(=O)(c1ccc(F)cc1)c1snnc1-c1ccccc1` was tested, and the IC50 was “inactive”.
For `Cc1cc(/C=C2\Cc3ccccc3C2=O)c(C)n1-c1ccccc1`, the IC50 was > 35.9 µM (inactive).
`C/C(=N\NC(=S)Nc1cc(S(=O)(=O)N2CCOCC2)ccc1Cl)c1ccccc1F` was tested, and the IC50 was > 35.9 µM (inactive).
`c1csc(Cc2nn3c(-c4ccncc4)nnc3s2)c1` gave an IC50 of 8.11 µM.
`COc1ccc2[nH]c(=O)c(CN(CCN3CCCC3)C(=O)Nc3ccccc3Cl)cc2c1` was tested, and the IC50 was “inactive”.
For `O=C(CC1CS(=O)(=O)CC1CC(=O)Nc1ccc2c(c1)OCCO2)Nc1ccc2c(c1)OCCO2` (stereo not drawn), the IC50 was > 35.9 µM (inactive).
For `O=C(NCCc1ccccc1)c1ccc2c(c1)OCCO2`, the IC50 was 9.59 µM.
Work on `Cc1cccc(NC(=O)c2cc(Cl)ccc2[N+](=O)[O-])c1` yielded an IC50 of 5.61 µM.
`CCOC(=O)CC(=O)CSc1nccc(-c2cccnc2)n1` was tested, and the IC50 was “inactive”.
`O=C(CNc1cccc([N+](=O)[O-])c1)N/N=C/c1ccc([N+](=O)[O-])o1` was tested, and the IC50 was “inactive”.
For `COc1cc(C(=O)N/N=C(\c2ccccc2)c2ccccn2)cc(OC)c1OC`, the IC50 was “inactive”.
`COC(CN(C(=O)CCl)C(C(=O)NC1CCCCC1)c1ccccc1C)OC` (stereo not drawn) gave an IC50 of 6.18 µM.
With `COC(=O)c1c(C)n(-c2ccc(OC)cc2)c2ccc(O)cc12` the IC50 was 3.99 µM.
Work on `O=C(CCCc1nc(-c2ccccc2Cl)no1)NC1CCCC1` yielded an IC50 of 8.14 µM.
Molecule `CCCNC(=O)c1nnsc1S(=O)(=O)c1ccc(Cl)cc1` has an IC50 of 8.04 µM.
With `C=CC[n+]1c(-c2ccc(C)cc2)csc1Nc1ccc(NC(C)=O)cc1` the IC50 was > 35.9 µM (inactive).
`CC(C)(C)C(=O)Nc1ccc(N=Nc2ccccc2)cc1` was tested, and the IC50 was > 35.9 µM (inactive).
In the case of `Cc1ccc2occ(/C=N/NC(=O)[C@@H](N)Cc3ccccc3)c(=O)c2c1`, the IC50 is reported as 9.86 µM.
In the case of `COc1cccc(CNc2ncnc3ccc(-c4c(C)noc4C)cc23)c1`, the IC50 is reported as “inactive”.
In the case of `CC(=O)Nc1ccc(SCC(=O)c2cc(C)n(-c3ccccc3)c2C)cc1`, the IC50 is reported as > 35.9 µM (inactive).
Work on `O=C(Nc1nc2ccccc2s1)C1c2ccccc2Oc2ccccc21` yielded an IC50 of 7.97 µM.
For `CCc1ccc(/C=C2\SC(=S)N(CCCC(=O)NCCCN3CCOCC3)C2=O)cc1`, the IC50 was “inactive”.
Work on `CN1C(=O)C2(C(C#N)=C(N)N(c3cc(Cl)cc(Cl)c3)C3=C2C(=O)CCC3)c2ccccc21` (stereo not drawn) yielded an IC50 of 2.63 µM.
`O=C(N/N=C\c1ccc([N+](=O)[O-])o1)C1COc2ccccc2O1` (stereo not drawn) was tested, and the IC50 was > 35.9 µM (inactive).
For `CC(=O)N1CCN(c2ncnc3ccccc23)CC1`, the IC50 was 8.94 µM.
`O=C(CCl)N(c1ccccc1)C1CCCCC1` showed an IC50 of 8.7 µM.
`Cc1cc(C(=O)CN2C(=O)c3ccccc3S2(=O)=O)c(C)n1C(C)C` was tested, and the IC50 was “inactive”.
Molecule `S=C(Nc1ccccc1)Nc1ccc(OCc2ccc(Cl)cc2Cl)cc1` has an IC50 of 4.36 µM.
`COc1cc2oc(=O)cc(-c3ccc(-c4ccc(CO)cc4)cc3)c2c(OC)c1OC` was tested, and the IC50 was 4.57 µM.
`Cc1cccc(Oc2sc(C(=O)c3ccccc3)c(N)c2C#N)c1` was tested, and the IC50 was 8.09 µM.
`Cc1ccc(C(=O)Nc2cnc3ccccc3c2)cc1` was tested, and the IC50 was “inactive”.
With `C(=Cc1cnc2ccccc2n1)c1ccc2c(c1)OCO2` the IC50 was “inactive”.
For `CCn1nc(/C=C/c2ccccc2)nc2c(=O)n(C)c(=O)nc1-2`, the IC50 was > 35.9 µM (inactive).
Work on `CCc1nc(N)nc(N)c1-c1ccc(Cl)c([N+](=O)[O-])c1` yielded an IC50 of 4.28 µM.
In the case of `COc1cc(/C=C(/C(=O)c2cccs2)c2nc3ccccc3[nH]2)cc(OC)c1O`, the IC50 is reported as > 35.9 µM (inactive).
In the case of `Cc1cccc(CN2CCN(C(=O)CCl)CC2)c1`, the IC50 is reported as > 35.9 µM (inactive).
With `CN(C)c1ccc(C(=S)Nc2ccccc2)cc1` the IC50 was > 35.9 µM (inactive).
For `O=c1[nH]c2ccccc2n1C1CCN(C(c2cccc3ccccc23)c2nnnn2-c2ccc3c(c2)OCCO3)CC1` (stereo not drawn), the IC50 was “inactive”.
`c1ccc2c(c1)Nc1ccncc1S2` was tested, and the IC50 was “inactive”.
In the case of `C(=NNc1ccc2ccccc2n1)c1ccccn1`, the IC50 is reported as “inactive”.
Molecule `O=C(c1ccncc1)N(Cc1cc2ccccc2[nH]c1=O)C1CCCCC1` has an IC50 of 5.82 µM.
`Cc1ncc(CO)c(/C=N/NC(=O)c2cc3c(s2)CCCC3)c1O` was tested, and the IC50 was 7.15 µM.
